From ChEMBL document CHEMBL5512616, “pH regulators and their inhibitors in tumor microenvironment” (Eur J Med Chem, 2024)
pEC50, pIC50, pKi: −log10 of the molar value. “And” between values parts separate entries of the source, which are not always exact repeats. Equal entries are not always repeated. Values belong to the compound of their own block, whether it stands above or below them.

What was measured:
[1] = biological target: T1, Sodium/hydrogen exchanger 1 (Homo sapiens, UniProt P19634); format: cell-based, Platelet
T1 sequence (P19634 whole entry): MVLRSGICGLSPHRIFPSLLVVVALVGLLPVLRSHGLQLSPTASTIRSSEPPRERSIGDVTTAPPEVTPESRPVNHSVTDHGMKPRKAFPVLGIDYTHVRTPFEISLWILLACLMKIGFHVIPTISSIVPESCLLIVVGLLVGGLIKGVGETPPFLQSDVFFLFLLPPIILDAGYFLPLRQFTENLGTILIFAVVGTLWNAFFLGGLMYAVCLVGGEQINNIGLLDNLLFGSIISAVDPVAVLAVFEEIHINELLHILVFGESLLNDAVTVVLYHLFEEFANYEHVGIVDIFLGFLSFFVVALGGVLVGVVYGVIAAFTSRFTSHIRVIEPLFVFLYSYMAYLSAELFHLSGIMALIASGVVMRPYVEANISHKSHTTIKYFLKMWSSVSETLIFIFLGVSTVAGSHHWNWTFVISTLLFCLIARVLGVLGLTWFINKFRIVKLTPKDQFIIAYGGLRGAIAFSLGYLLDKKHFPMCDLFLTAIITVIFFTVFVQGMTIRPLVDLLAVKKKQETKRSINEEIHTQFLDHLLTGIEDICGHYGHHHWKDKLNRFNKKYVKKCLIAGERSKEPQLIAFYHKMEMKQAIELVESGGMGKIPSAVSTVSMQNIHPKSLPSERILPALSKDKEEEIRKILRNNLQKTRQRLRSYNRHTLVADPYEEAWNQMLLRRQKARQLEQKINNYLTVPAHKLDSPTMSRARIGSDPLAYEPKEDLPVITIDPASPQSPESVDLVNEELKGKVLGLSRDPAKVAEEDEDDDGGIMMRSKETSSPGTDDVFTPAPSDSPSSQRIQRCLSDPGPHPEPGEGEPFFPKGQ

[2] = biological target: T2, Monocarboxylate transporter 1 (Rattus norvegicus, UniProt P53987)
T2 sequence (P53987 whole entry): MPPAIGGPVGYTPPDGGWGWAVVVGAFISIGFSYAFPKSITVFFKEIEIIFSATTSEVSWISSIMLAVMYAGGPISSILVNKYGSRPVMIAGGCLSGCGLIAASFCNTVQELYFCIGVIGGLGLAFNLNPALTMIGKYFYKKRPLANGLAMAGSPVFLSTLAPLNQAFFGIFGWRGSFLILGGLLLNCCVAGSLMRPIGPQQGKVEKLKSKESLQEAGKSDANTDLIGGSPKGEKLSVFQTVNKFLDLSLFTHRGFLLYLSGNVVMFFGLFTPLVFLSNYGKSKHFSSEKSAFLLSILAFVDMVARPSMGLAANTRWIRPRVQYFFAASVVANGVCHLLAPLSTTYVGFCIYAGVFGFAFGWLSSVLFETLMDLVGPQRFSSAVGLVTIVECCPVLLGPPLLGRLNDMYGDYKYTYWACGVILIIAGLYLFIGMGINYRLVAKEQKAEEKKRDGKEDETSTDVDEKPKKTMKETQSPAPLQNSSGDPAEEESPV

[3] = biological target: T1, Sodium/hydrogen exchanger 1
[4] = biological target: T3, Carbonic anhydrase 2 (Homo sapiens, UniProt P00918)
[5] = tested on: MCF7; assay: cells; details: Homo sapiens
[6] = tested on: HepG2; assay: cells; details: Homo sapiens
[7] = tested on: A549; assay: cells; details: Homo sapiens
[8] = biological target: T1, Sodium/hydrogen exchanger 1; remark: listed apart in the source
[9] = biological target: T4, Monocarboxylate transporter 1 (Homo sapiens, UniProt P53985)
T4 sequence (P53985 whole entry): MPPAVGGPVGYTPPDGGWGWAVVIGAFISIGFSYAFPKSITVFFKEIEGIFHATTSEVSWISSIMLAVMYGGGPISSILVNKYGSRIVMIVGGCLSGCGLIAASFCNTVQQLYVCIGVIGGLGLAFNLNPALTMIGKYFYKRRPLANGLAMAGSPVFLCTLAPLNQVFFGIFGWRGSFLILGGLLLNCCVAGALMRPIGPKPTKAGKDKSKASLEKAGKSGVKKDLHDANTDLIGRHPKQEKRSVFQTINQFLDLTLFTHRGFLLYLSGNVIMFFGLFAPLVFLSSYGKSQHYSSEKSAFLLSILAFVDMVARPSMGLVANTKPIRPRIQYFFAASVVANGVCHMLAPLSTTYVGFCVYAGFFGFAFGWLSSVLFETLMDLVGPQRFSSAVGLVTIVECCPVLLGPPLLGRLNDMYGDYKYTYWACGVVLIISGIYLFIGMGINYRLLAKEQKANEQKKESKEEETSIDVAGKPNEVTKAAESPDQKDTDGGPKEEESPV

[10] = biological target: T3, Carbonic anhydrase 2; remark: listed apart in the source
[11] = biological target: T5, Carbonic anhydrase 9 (Homo sapiens, UniProt Q16790)
[12] = tested on: MCF7; assay: cells; details: Homo sapiens, MCF7, 96 h
[13] = biological target: T5, Carbonic anhydrase 9; remark: listed apart in the source
[14] = biological target: T6, Monocarboxylate transporter 4 (Homo sapiens, UniProt O15427)
T6 sequence (O15427 whole entry): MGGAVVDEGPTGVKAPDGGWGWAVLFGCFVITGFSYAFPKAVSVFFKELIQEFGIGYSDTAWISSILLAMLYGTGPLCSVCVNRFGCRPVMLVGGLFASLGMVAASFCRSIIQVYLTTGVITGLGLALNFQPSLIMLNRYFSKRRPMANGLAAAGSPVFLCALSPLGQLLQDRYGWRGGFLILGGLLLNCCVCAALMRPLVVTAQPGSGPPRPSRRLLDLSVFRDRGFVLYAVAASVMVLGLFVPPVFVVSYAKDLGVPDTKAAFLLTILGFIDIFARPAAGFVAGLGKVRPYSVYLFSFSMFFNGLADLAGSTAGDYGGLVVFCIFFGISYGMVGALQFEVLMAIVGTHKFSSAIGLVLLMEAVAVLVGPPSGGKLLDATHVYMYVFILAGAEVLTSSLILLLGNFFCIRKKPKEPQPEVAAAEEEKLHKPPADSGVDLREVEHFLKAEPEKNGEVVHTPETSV

[15] = biological target: T4, Monocarboxylate transporter 1; remark: listed apart in the source
[16] = tested on: Raji; assay: cells; details: Homo sapiens, 96 h

SMILES: CCN(c1nc(N)c(C(=O)NC(=N)N)nc1Cl)C(C)C [5-(N-ETHYL-N-ISOPROPYL)AMILORIDE]
- pIC50 [1]: 6.30

SMILES: CC(C)(C)[Si](CCOc1ccc(/C=C(\C#N)C(=O)O)cc1)(c1ccccc1)c1ccccc1
- pIC50 [2]: 7.01

SMILES: Cc1cccc2c1cc(C(=O)N=C(N)N)n2C
- pIC50 [8]: 7.00

SMILES: N#C/C(=C\c1c[nH]c2ccccc12)C(=O)O
- pIC50 [2]: < 6.00

SMILES: COc1ccc(CN2CCN(CCOc3ccc(C(=O)N=C(N)N)cc3[N+](=O)[O-])CC2)c(OC)c1OC
- pIC50 [8]: 6.98

SMILES: Cn1c(C(=O)N=C(N)N)cc2ccccc21
- pIC50 [8]: 6.00

SMILES: N#Cc1cc2ccc(O)cc2oc1=O
- pKi [10]: < 3.70

SMILES: O=c1cc(-c2ccc(O)c(O)c2)oc2cc(O)cc(O)c12 [LUTEOLIN]
- pIC50 [9]: 6.39

SMILES: O=c1ccc2cc(-n3cc(CNc4ccc(Br)cc4)nn3)ccc2o1
- pKi [10]: < 4.30

SMILES: CCOC(=O)N1CCC(=C2c3ccc(Cl)cc3CCc3cccnc32)CC1 [LORATADINE]
- pIC50 [14]: < 3.52
- pIC50 [15]: ~4.00

SMILES: Cn1c(=O)n(Cc2nnc(N)[nH]2)c(=O)c2ccccc21
- pIC50 [8]: 5.24

SMILES: Cc1nc(C(=O)N=C(N)N)c(N)nc1N1CCCOCC1
- pIC50 [3]: 7.07

SMILES: NC(N)=NC(=O)c1cc(Cl)c(N)cc1N
- pIC50 [1]: 4.80

The next lines start with the values.

- pIC50 [1]: 7.10
SMILES: Cc1cc(-n2cccc2)c(S(C)(=O)=O)cc1C(=O)NC(=N)N [ENIPORIDE]

- pIC50 [2]: < 6.00
SMILES: N#C/C(=C\c1cn(-c2ccccc2C(=O)O)c2ccccc12)C(=O)O

- pIC50 [3]: 6.76
SMILES: CC(C)CN(C)c1nc(N)c(C(=O)N=C(N)N)nc1Cl [5-(N-METHYL-N-ISOBUTYL)AMILORIDE]

- pKi [4]: 6.59
- pIC50 [5]: 5.08
- pIC50 [6]: 5.11
- pIC50 [7]: 5.36
SMILES: CC(=O)C(C)/C(C)=N/NC(=O)C12CC3CC(CC(C3)C1)C2 (stereo not drawn)

- pIC50 [1]: 6.95
SMILES: Cc1cc(S(C)(=O)=O)c(S(C)(=O)=O)cc1C(=O)NC(=N)N [RIMEPORIDE]

- pIC50 [8]: 6.92
SMILES: CC(C)N1C(=O)C(C)(C)Oc2ccc(C(=O)N=C(N)N)cc21

- pIC50 [9]: 5.59
SMILES: O=C(CCc1ccc(O)cc1)c1c(O)cc(O)cc1O [PHLORETIN]

- pKi [11]: 8.35
- pIC50 [12]: 4.98
SMILES: C=C(C)[C@@H]1CC[C@]2(COS(N)(=O)=O)CC[C@]3(C)[C@H](CC[C@@H]4[C@@]5(C)CC[C@H](OC(=O)NCC)C(C)(C)[C@@H]5CC[C@]43C)[C@@H]12

- pKi [10]: < 4.00
- pKi [13]: 6.20
SMILES: CC(=O)c1ccc(-c2cc3ccccc3oc2=O)nc1C

- pIC50 [1]: 7.00 and 6.10
SMILES: CS(=O)(=O)c1cc(C(=O)N=C(N)N)ccc1N1CCCCC1

- pIC50 [8]: 6.70
SMILES: CC(C)N1C(=O)C(C)(C)Oc2cc(C(=O)N=C(N)N)ccc21

- pKi [4]: < 5.00
SMILES: C=CCN1CCN(Cc2c(O)ccc3c(C)cc(=O)oc23)CC1

- pIC50 [1]: 5.44
SMILES: CC(=O)Nc1cc([N+](=O)[O-])c(Cl)cc1C(=O)N=C(N)N

- pIC50 [14]: ~3.86
- pIC50 [15]: < 3.68
SMILES: CC(C)c1c(C(=O)Nc2ccccc2)c(-c2ccccc2)c(-c2ccc(F)cc2)n1CC[C@@H](O)C[C@@H](O)CC(=O)O [ATORVASTATIN CALCIUM]

- pEC50 [16]: ≥ 7.00
SMILES: CC(C)c1cc(=O)c2c(OCCCO)cc(OCc3cccc4ccccc34)cc2o1

- pKi [10]: < 5.00
- pKi [13]: 7.49
SMILES: Cc1cc(=O)oc2cc(OCCCCCNc3nc4cc(-c5ccccc5)ccc4o3)ccc12

- pIC50 [1]: 5.48
SMILES: N=C(N)NC(=O)c1nc(Cl)c(N2CCCCCC2)nc1N [N,N-HEXAMETHYLENEAMILORIDE]
